# Reference: patent publication US20200124600A1, “METHODS OF TREATING AUTOIMMUNE AND INFLAMMATORY DISEASES” (Genentech, Inc., priority 2017, published 2020)
# Experiments:
# [1] = test system: human memory B cells; experiment: CD40L induced plasmablast differentiation of memory B cells, flow cytometry; assay type: cell-based
# Source text: It was confirmed that plasmablast differentiation was regulated by Bruton's Tyrosine Kinase (BTK) activity by performing an in vitro plasmablasts differentiation assay where human memory B cells were put into differentiating conditions, and were subsequently measured after 5 days using flow cytometry quantification for CD20^loCD38^++ plasmablasts. […] GDC-0852 is (S)-2-(5-Fluoro-2-(hydroxymethyl)-3-(1-methyl-5-(5-(2-methyl-4-(oxetan-3-y-1)piperazin-1-yl)pyridin-2-ylamino)-6-oxo-1,6-dihydropyridin-3-yl)-phenyl)-3,4,6,7,8,9-hexahydropyrido[3,4-b]indolizin-1(2H)-one, the structure of which is shown below:
# Plasmablast Differentiation: Memory B cells were isolated from Healthy donor PBMC (Miltenyi Memory B cell isolation kit). […]
# (§1) Statistical analyses were performed using either <> or custom scripts written in the R programming language. […] IC50 values for BTK inhibition was calculated using the GraphPad Prism software. […]
# (§2) Results: The differentiation of B cells into plasmablast can occur through multiple activation stimuli and involves distinct molecular changes. […] We evaluated the effect of the BTK inhibitor GDC-0852 in the plasmablast differentiation process, either by a T cell-mediated response using CD40L stimulation or a T cell-independent response using the Toll-like receptor ligand, CpG.
# [2] = test system: plasmablast signature genes IgJ, MZB1, TXNDC5; experiment: Plasmablast signature gene expression in differentiated memory B cells, Fluidigm quantitative RT-PCR; assay type: cell-based, human; settings: 370 nM vs DMSO, 5 days, n=4 donors
# Description: FIGS. 8A, 8B, 8C and 8D. BTK inhibition reduces the plasmablast gene signature. Memory B cells from 4 healthy donors were differentiated into plasmablasts using conditions described above, in the presence of DMSO vehicle or 370 nM GDC-0852. Expression of plasmablast signature genes was measured by Fluidigm, and normalized to a housekeeping gene (HPRT1). Expression values are plotted as the relative transcript abundance to the housekeeping gene. The plasmablast signature was calculated as the geometric mean of the relative abundances of the three individual genes.
# (§3) Plasmablast Differentiation: Memory B cells were isolated from Healthy donor PBMC (Miltenyi Memory B cell isolation kit). For the Plasmablast differentiation, 1.5×10^5/ml memory B cells were then cultured in the presence of a cocktail of cytokines, IL-2(20 U/ml), IL-10 (50 ng/ml), IL-15(10 ng/ml), IL-6 (50 ng/ml), IFNa (10 ng/ml) and stimulated with either ODN2006 (TLR-9 ligand) 5 ug/ml, or CD40L (3 ug/ml) for 5 days. The plasmablast differentiation was carried out in the presence of vehicle alone (DMSO) and GDC-0852 at various concentrations, using a 3 fold dose titration of inhibitor starting at 10 uM. Flow cytometry was performed to enumerate ([…]) plasmablast percentages and assess the inhibition by GDC-0852.
# RNA Preparation: RNA was extracted from the cells in culture at 5 days from the DMSO and GDC-0852 (370 nM) treated cells (n=4). Cells were disrupting in RLT buffer using the Qiashredder (Qiagen, Valencia, Calif.) and then RNA was extracted using the RNeasy mini kit (Qiagen) including the on-column DNase digestion. The concentration of total RNA and integrity of RNA samples was determined using the NanoDrop 8000 (Thermo Scientific). The isolated RNA was used for the Fluidigm quantitative RT-PCR analyses.
# QT PCR: cDNA synthesis was performed on 100 ng total-RNA using an iScript cDNA synthesis kit (Biorad, Hercules, Calif.). Gene-specific pre-amplification was performed (Applied Biosystems) for 3 genes (IgJ, MZB1, TXNDC5 including housekeeping genes TMEM55B. RT-PCR was performed using the BioMark 48.48 Dynamic Arrays (Fluidigm Corporation) using the manufacturer's protocol. Data were collected using the BioMark Data Collection Software and CT values were obtained using the BioMark RT-PCR Analysis Software (V.2.1.1, Fluidigm). The relative abundance (dCt) to HPRT1 was calculated: 2 log−(average Ct gene−average Ct HPRT1). For statistical analyses, values below the lower limit of detection were set to be 1 Ct lower than the lowest recorded value.
# as §1
# [3] = test system: human memory B cells; experiment: CpG-mediated plasmablast differentiation of memory B cells, flow cytometry; assay type: cell-based; settings: B-cell, memory B cells from healthy donors, ODN2006 5 ug/ml plus cytokines, n=3, read-out: IC50 potency, inhibition of CpG-mediated plasmablast differentiation
# Description: as §3, §1, §2
# [4] = test system: plasmablast signature; experiment: Plasmablast signature in blood of extra-renal lupus patients, EXPLORER clinical trial; assay type: in vivo, human; settings: for expression of the plasmablast signature compared to patients treated with azathioprine: screening samples
# Description: (§4) Blood Sample Analysis: 3-gene plasmablast signature expression assay. Blood was collected in PAXgene RNA tubes (PreAnalytiX); total RNA was extracted using commercially available kits according to manufacturer instructions (Qiagen).
# (§5) Alternatively, expression of candidate biomarker genes in blood samples was quantified by Fluidigm qPCR assays. 3-gene score was calculated from the mean of IgJ, TXNDC5 and MZB1, and normalized using reference gene TMEM55B. Blood samples were assessed using this assay developed on the Cobas 4800 platform (Roche Molecular Systems).
# (§6) Plasmablast signature values were collected from two cohorts of moderate to severe lupus patients from phase II clinical trials assessing the safety and efficacy of rituximab in SLE. The cohorts were patients with either lupus nephritis (LUNAR) or extra-renal lupus (EXPLORER). Mixed effects modeling of plasmablast signature values over the course of treatment, incorporating covariates for age, race, concomitant medications, interferon activity, SLEDAI, visit, treatment arm and their interaction, with patient modeled as a random effect, identified a profound decrease in plasmablast signature specifically within the rituximab treated patients (FIG. 4A, 4B). This effect was most apparent in the time points two weeks after receiving rituximab infusion, with diminishing effect over time.
# In the EXPLORER trial, patients were monitored for presence of antibodies directed against mouse-human chimeric antibodies (HACA). […] Using the same linear mixed effects model, as above, a 2.8-fold higher expression of plasmablast marker genes was found in patients that went on to develop HACA (p=0.0007).
# Previous studies identified an association between different immunosuppressive treatments and reduced expression of plasmablast-associated genes.
# [5] = test system: plasmablast signature; experiment: Plasmablast signature in blood of lupus nephritis patients, LUNAR clinical trial; assay type: in vivo, human
# Description: as §4, §5
# as §6, with “time. […]” for “time.”
molecule,measurement,setting,value
"C[C@H]1CN(C2COC2)CCN1c1ccc(Nc2cc(-c3cc(F)cc(N4CCc5c(cc6n5CCCC6)C4=O)c3CO)cn(C)c2=O)nc1 [GDC-0852, (S)-2-(5-Fluoro-2-(hydroxymethyl)-3-(1-methyl-5-(5-(2-methyl-4-(oxetan-3-y-1)piperazin-1-yl)pyridin-2-ylamino)-6-oxo-1,6-dihydropyridin-3-yl)-phenyl)-3,4,6,7,8,9-hexahydropyrido[3,4-b]indolizin-1(2H)-one]",IC50,"[1]; Homo sapiens, B-cell, 120 h, memory B cells from healthy donors, CD40L 3 ug/ml plus cytokines, day 5, FACS, read-out: IC50 potency, inhibition of CD40L induced plasmablast differentiation",20 nM
same,inhibition of CD40L induced plasmablast differentiation,"[1]; human memory B cells, measured after 5 days, CD20loCD38++ plasmablasts by flow cytometry",inhibited CD40L induced plasmablast differentiation in a dose-dependent manner
same,expression of plasmablast signature gene MZB1,[2]; p=0.0023,significant decrease
same,composite plasmablast 3 gene signature,[2]; p=0.0026,significant decrease
same,expression of plasmablast signature gene TXNDC5,[2]; p=0.0032,significant decrease
same,expression of plasmablast signature gene IgJ,[2]; p=0.011,significant decrease
same,IC50,[3],48 nM
CN(Cc1cnc2nc(N)nc(N)c2n1)c1ccc(C(=O)N[C@@H](CCC(=O)O)C(=O)O)cc1 [methotrexate],expression of the plasmablast signature compared to patients treated with azathioprine,[4],much lower expression
"COc1c(C)c2c(c(O)c1C/C=C(\C)CCC(=O)OCCN1CCOCC1)C(=O)OC2 [mycophenolate, mycophenolate mofetil]",expression of the plasmablast signature compared to patients treated with azathioprine,[4],much lower expression
same,expression of plasmablast signature genes in patients on treatment at baseline,"[5]; baseline, relatively few patients in the MMF pool",trend toward lower expression
rituximab,change in plasmablast signature after treatment in patients that went on to develop anti-drug antibodies (HACA),[4]; HACA-positive patients,limited to no decrease
same,maximum decrease in plasmablast signature,"[4]; week 28, two weeks following the fourth infusion, p=2×10^−11",3.48 fold
same,reduction of plasmablast signature expression,"[5]; week 28 time point, p=0.0011",3.31 fold
